According to ChEMBL document CHEMBL4364294 (J Med Chem, 2019):

Experiment: Intrinsic clearance in human liver microsomes
Assay type: ADME, Microsome
Details: read-out: CLH

predicted hepatic clearance: 6.2 mL/min/kg
SMILES: O[C@@H](C[C@H]1c2c(F)cccc2-c2cncn21)[C@H]1CC[C@H](O)CC1
